“Also recorded” adds a separate entry of the source.
Experiments:
[1] = system: Kv1.2; experiment: K+ current by voltage ramp, CHO cells expressing Kv1.2-WT; type: cell-based; settings: 1 µM, n = 7
Excerpt: Fig. 3 Direct interaction between FMRP and Kv1.2 in a phosphorylation-specific manner. a Illustration of an alpha subunit of Kv1.2 channel with extensive details of intracellular C-terminus. b K^+ current generated by a voltage ramp (−90 to 100 mV, top) from CHO cells expressing WT (Kv1.2-WT, middle) or truncated Kv1.2 (Kv1.2-Δ429-500, bottom) before and after infusion of N-terminus FMRP protein (n-FMRP, H00002332-P01, Novus Biologicals, 1:100 dilution). c The changes in amplitude of K^+ current by n-FMRP is summarized for Kv1.2-WT (n = 8) and Kv1.2-Δ429-500 (n = 8) constructs. d Co-IP of Kv1.2 and FMRP in the absence or presence of three peptides targeting the sequence (436–457) of C-terminus of Kv1.2 as highlighted in a phosphorylated (PhosKv436-457), non-phosphorylated (Kv436-457), and phosphorylated scrambled peptide. e Summary of effect of the three peptides. […] The changes in the amplitude and frequency of sIPSCs are summarized in the right panels for PhosKv436-457 (n = 6, f), non-phosphorylated Kv436-457 (n = 6, g), and scrambled (n = 5, h) peptides.
Fig. 5 DHA rescue and graphical overview of the function of FMRP at the BC–PN synapses. a, b Currents generated by a voltage ramp (−90 to 100 mV) from CHO cells transfected with recombinant Kv1.2 in the absence (black) or presence (red) of DHA (1 µM). These currents are fit with a Boltzmann function: f(V) = Imax/(1+e^(V1/2−V)/Vc)+C, in which “Imax” denotes the theoretical value of the maximal amplitude of Kv1.2 currents; “V1/2” indicates the depolarization voltage needed to produce the half-maximal amplitude of the currents; “Vc” is the slope factor describing the steepness of the Boltzmann curve. The parameters for the two groups (n = 7) are summarized in (b). c, d sIPSCs recorded from PNs in Fmr1-KO slices with (bottom) or without (top) DHA (10 µM). Changes in the amplitude and frequency of sIPSC (n = 8) are quantified in (d). e, f APs from PNs before (top) and after (bottom) DHA application (10 µM). […] In WT BCs, there are two populations of Kv1.2 channels being in either non-phosphorylated or phosphorylated state (with C-termini colored in black and turquoise respectively; +/−P to symbolize phosphate modification). The N-terminus of FMRP dimers directly interact with C-terminus of Kv1.2 only in a phosphorylated state. This interaction enhances the gating (Pathway 1), membrane targeting (Pathway 2), and/or axonal trafficking (Pathway 3) of Kv1.2 in the nerve terminal to control its excitability and Ca^2+ dynamics (blue) critical for tuning inhibitory neurotransmission and ensuring the final output from principal neurons (i.e., PNs). […]

[2] = ref [45]; cited from earlier work
[3] = system: BC–PN synapse, Fmr1-KO; experiment: sIPSCs from PNs, Fmr1-KO synapses; type: cell-based, mouse; settings: 10 µM applied to Fmr1-KO cerebellar slices; n = 8
[4] = system: Fmr1-KO mice; experiment: Three-chambered sociability test, Fmr1-KO; type: in vivo, mouse; settings: 200 mg/kg i.p., 30 min before test; 7–9-week-old male; n = 7
Excerpt: (§1) The three-chambered sociability test was composed of three sessions: habituation (trail 1), sociability (trial 2), and social novelty (trial 3), which evaluated sociable behavior and recognition of social novelty. For habituation, 7–9-week-old testing male mouse was placed in the middle chamber and allowed to freely explore all three chambers. In the sociability session, a stranger mouse (the same strain and gender but never encountered before) was put underneath a grid cup and placed in one of the two side-chambers, while another identical empty cup was placed on the other side. In the social novelty session, another stranger mouse was put inside the previously empty cup. Each session lasted 9 min. Physical contacts around the cups with the nose, head, and forelimbs, were defined as sniffing behavior and used as an index for sociable behavior [47]. A camera, connected to a computer, was used to track mice activity using the ANY-maze software (ANY-maze, Stoelting Co., IL, USA). Testing was conducted 30 min after saline or DHA (200 mg/kg, Sigma) injection (intraperitoneal, i.p.) to minimize distress from drug administration and ensure normal physical activity that could be affected by DHA for a short period.

[5] = system: PNs, Fmr1-KO cerebellar slices; experiment: Spontaneous firing of PNs, cell-attached, Fmr1-KO; type: cell-based, mouse; settings: 10 µM, Fmr1-KO, cell-attached; n = 7
[6] = system: adult Fmr1-KO mice; experiment: Acoustic startle reflex (ASR); type: in vivo, mouse; settings: chow enriched with 0.5% w/w DHA for 1 week; n = 11 versus n = 10 control; double-blind
Protocol: As previously described, acoustic startle response was measured from 7–9-week-old mice, which were submitted to no pulse or a pulse stimulation (120 dB, 40 ms) alone or in combination of a prepulse (either 72, 78, or 82 dB, 20 ms). Maximal startle response was recorded and compared between groups for all types of trials. The sound attenuated chambers and analysis software were obtained from San Diego Instruments (San Diego, USA). One week prior to testing, mice were fed with normal chow or calorically equivalent chow enriched with 0.5% DHA (Sigma) prepared by Research Diets (New Brunswick, USA). Diets were prepared with identical dyes to be indistinguishable by eye. Mice were tested for acoustic startle response only once between 4 p.m. and 7 p.m.

[7] = system: WT mice; experiment: Three-chambered sociability test, WT; type: in vivo, mouse; settings: 200 mg/kg
Excerpt: as §1

[8] = ref Invitrogen; read-out: Kd (Ca2+ indicator); cited from earlier work

Question: With `CC/C=C\C/C=C\C/C=C\C/C=C\C/C=C\C/C=C\CCC(=O)O` [DHA, docosahexaenoic acid] as the molecule, how does the “half-activation voltage (V1/2)” value ([1]; Boltzmann fit) read?
Answer: decreased the half-activation voltage (V1/2)

Question: And the “maximal amplitude of Kv1.2 currents” value ([1]; Boltzmann fit)?
Answer: the maximal amplitude was unaffected

Question: And the “slope factor (Vc)” value ([1]; Boltzmann fit)?
Answer: increased the slope factor (Vc)

Question: And the “shift in Kv1.2 currents evoked by voltage ramp” value ([1]; ramp −90 to 100 mV)?
Answer: a significant leftward shift in the Kv1.2 currents

Question: What about the “blood–brain barrier crossing” value [2] of the same molecule?
Answer: can cross blood–brain barrier

Question: What about the “amplitude and frequency of sIPSCs” value [3] of the same molecule?
Answer: reduced amplitude and frequency of sIPSCs

Question: And the social novelty recognition [4]?
Answer: improved the deficient social novelty recognition

Question: And the “spike (AP) frequency of PNs” value [5]?
Answer: increases the frequency of APs in the Fmr1-KO synapses; also recorded: enhanced the spike frequency of PNs, restoring the firing rate of Fmr1-KOs to the same level as the WTs

Question: What about the “acoustic startle reflex from 120-dB sound stimulation” value [6] of the same molecule?
Answer: significantly attenuated ASR

Question: And the “distance travelled during the trials” value ([7]; WT, repeated one-way ANOVA, p>0.05)?
Answer: No significant differences

Question: What about the “social behavior of WT mice” value ([7]; male C57BL/6J, n = 8, repeated two-way ANOVA) of the same molecule?
Answer: did not affect social performance of WT mice; also recorded: did not alter the social behaviors of WT animals

Question: What about the “sniffing time, stranger versus empty cup” value ([7]; sociability session, WT, n = 8) of the same molecule?
Answer: spent more time sniffing the stranger than the empty cup

Question: What about the “sniffing time, novel stranger versus familiar mouse” value ([7]; social novelty session, WT, n = 8) of the same molecule?
Answer: spent more time sniffing the novel stranger than the familiar one

Question: With Fluo-4 as the molecule, how does the Kd [8] read?
Answer: 345 nM

Reference: paper PMC7473840, “Identification of a molecular locus for normalizing dysregulated GABA release from interneurons in the Fragile X brain” (Molecular Psychiatry, 2018)
